In paper PMC2921400 (PLoS ONE, 2010):
Where “and” joins values, the source holds several entries; their conditions need not be identical. Identical values can stand only once. Like-named read-outs stand apart in the source and are kept apart here.

Assays:
[1] = molecular target: T1, soluble extracellular portion of CD4 (sCD4) (Homo sapiens, UniProt P01730); experiment: sCD4 tryptophan fluorescence titration; type: binding; conditions: for Kd: pH 7.4, single site binding isotherm; for quenching of sCD4 tryptophan fluorescence / red shift of the emission peak: saturating concentrations of PA analog
T1 construct: soluble extracellular portion of CD4 (sCD4); purchased Progenics Pharmaceuticals, Inc
Description: The tryptophan fluorescence of the soluble extracellular portion of CD4 (sCD4) was used to estimate binding affinity of PA analogs for sCD4 in-vitro (Figure 2).
Figure 2 In vitro experiments of PA analogs binding to sCD4. Binding isotherm of the sCD4 tryptophan fluorescence at the wavelength of 350 nm with the increasing concentration of A) 2-BP, B) 6-AP, and C) SP; D) stoichiometric binding of 2-BP to sCD4. Tryptophan fluorescence was measured using an excitation wavelength of 280 nm. In all cases, we observed tryptophan fluorescence quenching of sCD4 by the increasing concentration of PA analogs. During stoichiometric binding experiment the concentration of sCD4 was kept at 200 nM, which is well above the dissociation constant of 2-BP-sCD4, 74 nM. Curve fitting (OriginLab) was performed to find the best values for Kd using a single site binding isotherm approximation.
Since PA analogs form micelles at micromolar concentration it was important to characterize binding stoichiomentry of PA analogs to CD4 (Figure 2D). […] The concentration of sCD4 was kept at 200 nM, which is well above the 74 nM dissociation constant of 2-BP-CD4. In this case, titrated 2-BP was fully bound. The observed changes in sCD4 fluorescence would level off when 2-BP-sCD4 reached proper stoichiometry.
Measurements were performed on a Fluorolog-3 fluorescence spectrophotometer (HORIBA Jobin Yvon) at 25°C in a 1-ml stirred cuvette. For fluorescence titration experiments, 100 nM of sCD4 dissolved in 10 mM phosphate buffer [pH 7.4] and 250 mM NaCl was used, and 100 µM solution of PA analogs, 2-BP, 6-AP, and SP dissolved in dimethylsulfoxide (DMSO) was added in 10 nM steps. Titrations in the absence of sCD4 and in the absence PA analogs were performed as reference. Tryptophan fluorescence was measured using an excitation wavelength of 280 nm. The fluorescence emission signal was subtracted from the signal of the reference titrations, and the differences adjusted by the dilution factor were plotted against the final concentration of added PA analogs. Curve fitting (OriginLab) was performed to find the best values for Kd using a single site binding isotherm approximation.

gp120 (IIIB)-CD4 complex = molecular target: T2, gp120 (IIIB)-CD4 complex (Homo sapiens, UniProt P01730); experiment: gp120 capture ELISA, inhibition of gp120-CD4 complex formation; type: binding, HIV-1
T2 construct: soluble extracellular portion of CD4 (sCD4); purchased ImmunoDiagnostics, Inc., MA
Description: Figure 3 Inhibition of gp120-CD4 complex formation. Inhibition of gp120-CD4 complex formation was investigated by gp120 capture ELISA. […] Strepavidin-HRP was added, and then developed by addition of o-Phenylenediamine dihydrochloride (OPD) substrate. Colorimetric reaction was stopped by adding 1N HCl, and read at 490 nm. Percent of gp120-CD4 binding was calculated from gp120-CD4 complex formation in the absence of any inhibitor. pKi (-log Ki, M) was calculated and plotted in Prizm (GraphPad Software), and inhibition constant, Ki, was calculated by using the equation Ki = IC50/(1+[CD4]/Kd), based on IC50 concentration of bound CD4, [CD4] = 50 nM, and CD4 binding affinity for gp120, Kd = 5 nM. Representative of three experiments, all data are mean ± SD.
Inhibition of gp120-CD4 complex formation was investigated by CD4-to-gp120 capture ELISA, in accordance with manufacturer's instructions (ImmunoDiagnostics, Inc., MA), and as previously described. […] Strepavidin-HRP was added, and then developed by addition of OPD substrate. Colorimetric reaction was stopped by adding 1N HCl, and read at 490 nm. Percent of gp120-CD4 binding was calculated from gp120-CD4 complex formation in the absence of any inhibitor.

soluble gp120 = molecular target: T3, soluble gp120 (Human immunodeficiency virus type 1 group M subtype B, UniProt P03375); experiment: reverse ELISA: plates coated with sCD4, gp120 incubated with compound; type: binding, HIV-1; conditions: plates coated with sCD4, gp120 incubated with increasing concentrations (not shown)
T3 construct: purchased

[2] = MTT viability assay in 1G5 cells; type: cell-based; conditions: human, 1G5 cells, 100 to 10,000 nM, up to 72 h, vs untreated mock control
Description: (§1) To ascertain possible toxicity of PA analogs, we tested each analog in cell culture system (Figure 4). 1G5 cells were treated with increasing concentrations of 2-BP, 6-AP, or SP, from 100 to 10,000 nM, and viability was determined by MTT assay at 24 h. (not shown) and at 72 h (Figure 4). Viability for all treatments and at all concentrations tested, remained ≥92% for up to 72 h. of follow-up.
(§2) Figure 4 Viability of PA analogs in tissue culture. 1G5 cells were treated with increasing concentrations of 2-BP, 6-AP, and SP, as indicated, and cell viability was determined 72 h. after treatment by MTT assay. % Viable cells were calculated from untreated mock control, which was taken as 100% viable. Bars indicate ± SD, representative of 2 experiments.
(§3) For determination of viability, 1G5 cells were seeded in 12 well plates at 1×10^6 cells/well, treated with increasing concentrations of PA analogs, from 100 to 10,000 nM (0.1 to 10 µM), as indicated. After 24 and 72 hours, cells were collected and analyzed for viability by a CellTiter 96 Non-Radioactive Cell Proliferation Assay [(3-(4,5-Dimethyl-2-thiazolyl)-2,5 dephenyltetrazolium, Promega,] (MTT) assay, as specified by the manufacturer, and as previously described.

[3] = critical micelle concentration by 1D proton NMR; type: physicochemical
CD4 receptor = conditions: cited from earlier work
gp120-to-CD4 attachment = molecular target: gp120-to-CD4 attachment; parameters: method as in submitted for publication; conditions: ref submitted for publication; read-out: Ki for blocking gp120-to-CD4 attachment; cited from earlier work
X4-tropic HIV-1 = conditions: primary PBL and macrophages; read-out: IC50 of productive X4-tropic HIV-1 infection; cited from earlier work
R5-tropic HIV-1 [4] = conditions: primary PBL and macrophages; read-out: IC50 of productive R5-tropic HIV-1 infection; cited from earlier work
R5-tropic HIV-1 [5] = tested on: R5-tropic HIV-1; parameters: method as in submitted for publication; conditions: ref submitted for publication, cited from earlier work
gp120 = conditions: cited from earlier work
1G5 cells = experiment: MTT viability assay in 1G5 cells; type: cell-based; conditions: 100 to 10,000 nM, up to 72 h, vs untreated mock control
Description: as §1, §2, §3

[6] = 100 nM sCD4, 25°C, read-out: Kd, dissociation constant for sCD4
[7] = Ki = IC50/(1+[CD4]/Kd), [CD4] = 50 nM, Kd = 5 nM, read-out: Ki, inhibition constant for gp120-CD4 complex formation

Compound | Kd [1, 6] | quenching of sCD4 tryptophan fluorescence [1] | red shift of the emission peak [1] | Ki (gp120 (IIIB)-CD4 complex; Ki, inhibition constant for gp120-CD4 complex formation, Ki = IC50/(1+[CD4]/Kd), [CD4] = 50 nM, Kd = 5 nM) | inhibition of gp120-CD4 complex formation in reverse experiment (soluble gp120) | viability [2] | cmc, critical micelle concentration [3] | Kd (CD4 receptor) | Ki (gp120-to-CD4 attachment) | IC50 (X4-tropic HIV-1) | IC50 (R5-tropic HIV-1 [4]) | inhibition of R5-tropic HIV-1 infection (R5-tropic HIV-1 [5]; cervical explant model of human vagina and submucosa primary PBL and macrophage cells) | toxicity in cervical explant model (R5-tropic HIV-1 [5]; cervical explant model of human vagina) | binding to gp120 (gp120) | Ki (gp120 (IIIB)-CD4 complex; [7]) | pKi (-log Ki, M) (gp120 (IIIB)-CD4 complex; gp120 (IIIB), 50 nM biotin-sCD4, mean ± SD) | viability (1G5 cells) | Kd ([1]; Kd, dissociation constant for sCD4, 100 nM sCD4, 25°C) | concentration at which fluorescence quenching was saturated ([1]; stoichiometric titration, sCD4 kept at 200 nM) | Ki (gp120 (IIIB)-CD4 complex; pKi (-log Ki, M), gp120 (IIIB), 50 nM biotin-sCD4, mean ± SD)
CCCCCCCCCCCCCCCC(=O)OC[C@H](O)[C@H]1OC(=O)C(O)=C1O [6-AP, 6-O-Palmitoyl-L-ascorbic acid] | 140 nM and ~140 nM | 40% | 3 nm | 354 nM and ~354 nM | not inhibited | ≥ 92% | 7 µM |  |  |  |  |  |  |  |  |  |  |  |  | 
CCCCCCCCCCCCCCCC(=O)O [PA, Palmitic acid] |  |  |  |  |  |  | 4 µM | ~1500 nM | ~2530 nM | ~340 nM | ~33 µM | inhibited | without toxicity | does not bind to gp120 |  |  |  |  |  | 
Sucrose palmitate [SP] | 364 nM and ~364 nM | 60% | 5 nm |  | not inhibited |  | 30 µM |  |  |  |  |  |  |  | 1490 nM and ~1490 nM | 5.83 ± 0.15 | ≥ 92% |  |  | 
CCCCCCCCCCCCCCC(Br)C(=O)O (centres unmarked) [2-BP, 2-Bromohexadecanoic acid] |  | 50% | 4 nm |  | not inhibited | ≥ 92% | 5 µM |  |  |  |  |  |  |  | 122 nM and ~122 nM |  |  | 74 nM and ~74 nM | 200 µM | 120 nM
